Laboratory results as given in the supplement of paper PMC10307832.

Legend:
Assay in all cases: relative viability (nuclei count vs DMSO), 5 days (fraction); higher = more cells survive
IMD-0354 + Luminespib = compound: O=C(Nc1cc(C(F)(F)F)cc(C(F)(F)F)c1)c1cc(Cl)ccc1O [IMD-0354] + CCNC(=O)c1noc(-c2cc(C(C)C)c(O)cc2O)c1-c1ccc(CN2CCOCC2)cc1 [Luminespib] (partner 0.01 µM)
Procedure, shortened: (§1)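 Values are medians from duplicate plates. Each reflects relative viability, defined as the nuclei count of treated wells over that of vehicle wells. Lung cancer cell lines in 1536-well plates were pin-tool dosed one day after seeding with one drug alone or with a fixed anchor-drug dose plus five library-drug doses (not always all listed) in √10 steps, then fixed, stained and imaged at 4× after 5 days.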

CX-5461 + OSI-027 = compound: Cc1cnc(CNC(=O)c2c(=O)c3ccc(N4CCCN(C)CC4)nc3n3c2sc2ccccc23)cn1 [CX-5461] + COc1cccc2cc(-c3nc([C@H]4CC[C@H](C(=O)O)CC4)n4ncnc(N)c34)[nH]c12 [OSI-027] (partner 0.5 µM)
Procedure, shortened: as §1

CX-5461 + Phenformin = compound: Cc1cnc(CNC(=O)c2c(=O)c3ccc(N4CCCN(C)CC4)nc3n3c2sc2ccccc23)cn1 [CX-5461] + N=C(N)NC(=N)NCCc1ccccc1 [Phenformin] (partner 250 µM)
Procedure, shortened: as §1

CX-5461 + Linsitinib = compound: Cc1cnc(CNC(=O)c2c(=O)c3ccc(N4CCCN(C)CC4)nc3n3c2sc2ccccc23)cn1 [CX-5461] + C[C@]1(O)C[C@@H](c2nc(-c3ccc4ccc(-c5ccccc5)nc4c3)c3c(N)nccn32)C1 [Linsitinib] (partner 1 µM)
Procedure, shortened: as §1

Cell Line	relative viability (IMD-0354 + Luminespib; first compound 0.04 µM)	relative viability (IMD-0354 + Luminespib; first compound 0.1265 µM)	relative viability (IMD-0354 + Luminespib; first compound 0.4 µM)	relative viability (IMD-0354 + Luminespib; first compound 1.265 µM)	relative viability (IMD-0354 + Luminespib; first compound 4 µM)	relative viability (CX-5461 + OSI-027; first compound 0.01 µM)	relative viability (CX-5461 + OSI-027; first compound 0.03162 µM)	relative viability (CX-5461 + OSI-027; first compound 0.1 µM)	relative viability (CX-5461 + OSI-027; first compound 0.3162 µM)	relative viability (CX-5461 + OSI-027; first compound 1 µM)	relative viability (CX-5461 + Phenformin; first compound 0.01 µM)	relative viability (CX-5461 + Phenformin; first compound 0.03162 µM)	relative viability (CX-5461 + Phenformin; first compound 0.1 µM)	relative viability (CX-5461 + Phenformin; first compound 0.3162 µM)	relative viability (CX-5461 + Phenformin; first compound 1 µM)	relative viability (CX-5461 + Linsitinib; first compound 0.01 µM)	relative viability (CX-5461 + Linsitinib; first compound 0.03162 µM)	relative viability (CX-5461 + Linsitinib; first compound 0.1 µM)	relative viability (CX-5461 + Linsitinib; first compound 0.3162 µM)	relative viability (CX-5461 + Linsitinib; first compound 1 µM)
BEN	0.159	0.533	0.256	0.161	0.139	0.346	0.321	0.286	0.281	0.284	0.28	0.263	0.253	0.28	0.268	1.01	0.967	1.01	0.827	0.727
NCI-H1666	1.06	1.06	0.963	0.499	0.369	0.894	0.875	0.664	0.756	0.636	0.542	0.551	0.505	0.548	0.507	0.787	0.982	–	0.82	0.459
LC-2-ad	1.01	0.87	0.674	0.312	0.226	0.919	0.866	0.705	0.718	0.546	0.618	0.627	0.564	0.398	0.442	0.808	0.886	0.829	0.858	0.833
SW 1573	0.189	0.209	0.218	0.138	0.127	0.61	0.621	0.401	0.477	0.179	0.421	0.369	0.151	0.303	0.121	0.782	0.84	0.977	0.828	0.907
COR-L 105	0.891	0.906	0.463	0.317	0.236	0.767	0.665	0.532	0.391	0.445	0.496	0.557	0.414	0.405	0.306	1.05	0.93	1.08	0.852	0.59
NCI-H1975	0.24	0.197	0.183	0.153	0.162	0.842	0.735	0.661	0.865	0.329	0.44	0.401	0.377	0.415	0.2	1.06	0.983	0.784	1	0.629
NCI-H1993	0.852	0.701	0.623	0.483	0.619	0.562	0.591	0.625	0.511	0.448	0.478	0.476	0.457	0.452	0.416	0.743	0.681	0.722	0.712	0.643
RERF-LC-KJ	1.42	1.26	0.4	0.227	0.303	0.56	0.628	0.572	0.528	0.434	0.448	0.457	0.292	0.41	0.386	0.834	0.944	0.972	0.866	0.797
NCI-H23	0.299	0.212	0.247	0.178	0.145	0.672	0.757	0.546	0.544	0.343	0.769	0.875	0.834	0.803	0.406	0.612	0.554	0.709	0.529	0.451
EMC-BAC-2	1.28	1.13	0.537	0.651	0.284	0.334	0.376	0.338	0.322	0.242	0.507	0.518	0.399	0.299	0.271	0.843	0.914	0.828	0.824	0.815
NCI-H2405	0.752	0.669	0.671	0.358	0.288	0.607	0.639	0.717	0.632	0.616	0.411	0.363	0.415	0.326	0.342	1.03	0.898	0.993	0.897	0.757
SK-MES-1	0.904	1.01	0.437	0.169	0.233	0.586	0.57	0.582	0.607	0.372	0.662	0.645	0.452	0.625	0.313	1.16	1.12	1.1	1.11	0.999
EPLC-272H	0.51	0.322	0.409	0.22	0.131	0.259	0.288	0.297	–	0.31	0.278	0.299	0.264	–	0.361	1.3	1.27	1.09	–	1.06
NCI-H1915	0.609	0.665	0.296	0.355	0.226	0.664	0.692	0.601	0.599	0.605	0.375	0.364	0.376	0.32	0.31	1.1	1.13	1.12	1.12	1.16
NCI-H596	1.01	1	0.508	0.306	0.275	0.711	0.737	0.775	0.715	0.591	0.754	0.869	0.879	0.723	0.637	1.11	1.06	1.21	1.15	1.1
NCI-H322M	0.94	0.895	0.618	0.317	0.355	0.534	0.552	0.578	0.389	0.393	0.821	0.945	0.818	0.473	0.521	0.844	0.911	0.944	–	0.9
